From patent US8906925B2, “Pyrido[4,3-B]indoles containing rigid moieties” (Medivation Technologies, Inc., priority 2008, dated 2014) come the findings set out here.

Molecules are shown by their SMILES.

For test [1], the target named is human dopamine D2L receptor (Homo sapiens, UniProt P14416). As to the kind of experiment: Dopamine D2L radioligand binding ([3H]Spiperone). The following applies: percent inhibition of specific binding, compound at 1 μM; for Inhibition of ligand binding, Dopamine D2L: 1 µM; for inhibition at 1 µM: read-out: Inhibition of ligand binding, Dopamine D2L. An excerpt: Non-specific binding was estimated in the presence of […] Haloperidol. Receptor proteins were filtered and washed, the filters were then counted to determine [^3H]Spiperone specifically bound. […] Biochemical assay results are presented as the percent inhibition of specific binding in Table 9.

Test [2] has as its target T1, human recombinant serotonin (5-Hydroxytryptamine) 5-HT2C receptor (Homo sapiens, UniProt P28335).
T1 construct: expressed in transfected cells; host or cells: Chinese hamster ovary (CHO-K1) cells
T1 sequence (P28335 33-458): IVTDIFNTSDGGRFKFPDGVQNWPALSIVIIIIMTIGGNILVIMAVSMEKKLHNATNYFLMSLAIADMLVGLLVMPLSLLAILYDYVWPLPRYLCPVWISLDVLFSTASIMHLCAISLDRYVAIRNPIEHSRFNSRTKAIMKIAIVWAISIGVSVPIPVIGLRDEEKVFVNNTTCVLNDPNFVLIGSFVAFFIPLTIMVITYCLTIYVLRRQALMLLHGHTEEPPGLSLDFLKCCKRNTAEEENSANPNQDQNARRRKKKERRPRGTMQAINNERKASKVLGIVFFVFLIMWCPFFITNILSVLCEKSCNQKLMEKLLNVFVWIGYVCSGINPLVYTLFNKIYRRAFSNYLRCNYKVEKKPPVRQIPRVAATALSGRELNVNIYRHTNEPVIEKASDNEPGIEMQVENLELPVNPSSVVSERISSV
Kind of test: Serotonin 5-HT2C radioligand binding ([3H]Mesulergine). Conditions: for inhibition at 0.1 µM: compound at 0.1 μM; for inhibition at 0.1 µM / inhibition at 1 µM: read-out: Inhibition of ligand binding, Serotonin 5-HT2C (percent inhibition of specific binding). In a few lines: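 Compounds tested at 1 μM or lower (1% DMSO vehicle) for displacement of 1 nM [3H]Mesulergine over 60 min at 25° C. Specific binding determined by filtration counting, with 1 μM Mianserin defining non-specific binding; values are percent inhibition.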

Test [3] addresses T2, human recombinant serotonin (5-Hydroxytryptamine) 5-HT2A receptor (Homo sapiens, UniProt P28223).
T2 construct: expressed in transfected cells; host or cells: Chinese hamster ovary (CHO-K1) cells
Kind of test: Serotonin 5-HT2A radioligand binding ([3H]Ketanserin). Conditions: for inhibition at 0.1 µM: read-out: Inhibition of ligand binding, Serotonin 5-HT2A (percent inhibition of specific binding), compound at 0.1 μM; for inhibition at 1 µM: read-out: Inhibition of ligand binding, Serotonin 5-HT2A (percent inhibition of specific binding), compound at 1 μM. On the procedure:
Compounds of the invention were incubated with 0.5 nM [^3H]Ketanserin for 60 min. at 25° C. Non-specific binding was estimated in the presence of 1 μM Mianserin. Receptor proteins were filtered and washed, the filters were then counted to determine [^3H]Ketanserin specifically bound.

The target of test [4] is T3, human recombinant serotonin (5-Hydroxytryptamine) 5-HT6 receptor (Homo sapiens, UniProt P50406).
T3 construct: expressed in transfected cells; host or cells: human HeLa cells
Kind of test: Serotonin 5-HT6 radioligand binding ([3H]LSD). Conditions: read-out: Inhibition of ligand binding, Serotonin 5-HT6 (percent inhibition of specific binding); for inhibition at 0.1 µM: compound at 0.1 μM; for inhibition at 1 µM: compound at 1 μM. On the procedure:
Compounds of the invention were incubated with 1.5 nM [3H]Lysergic acid diethylamide (LSD) for 120 min. at 37° C. […] Receptor proteins were filtered and washed, the filters were then counted to determine [3H]LSD specifically bound. Compounds were screened at 1 μM or lower, using 1% DMSO as vehicle. Biochemical assay results are presented as the percent inhibition of specific binding in Table 10.

Test [5] has as its target human recombinant serotonin (5-Hydroxytryptamine) 5-HT7 receptor (Homo sapiens, UniProt P34969). Kind of test: Serotonin 5-HT7 radioligand binding ([3H]LSD). The following applies: for inhibition at 0.1 µM: compound at 0.1 μM; for inhibition at 0.1 µM / inhibition at 1 µM: read-out: Inhibition of ligand binding, Serotonin 5-HT7 (percent inhibition of specific binding). From the text:
Receptor proteins were filtered and washed, the filters were then counted to determine [^3H]LSD specifically bound.

Test [6] has as its target T4, human recombinant histamine H2 receptor (Homo sapiens, UniProt P25021).
T4 construct: expressed in transfected cells; host or cells: Chinese hamster ovary (CHO) K1 cells
Kind of test: Histamine H2 radioligand binding ([125I]Aminopotentidine). The following applies: read-out: Histamine Binding (1 μM) H2, percent inhibition of specific binding, 1 μM. In a few lines:
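CHO-K1 cells expressing human recombinant H2 receptor, 50 mM phosphate buffer pH 7.4; compounds incubated with 0.1 nM [125I]aminopotentidine for 120 min at 25 °C. Nonspecific binding defined with 3 μM tiotidine; specifically bound radioligand counted after filtration and washing.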

In test [7] the target is T5, human recombinant serotonin 5-HT1B receptor (Homo sapiens, UniProt P28222).
T5 construct: expressed in transfected cells; host or cells: CHO-K1 cell line, membrane extracts
Kind of test: 5-HT1B radioligand binding competition assay ([3H]5-CT, CHO-K1 membranes). Conditions: for 5-HT1B (5 μM) % Binding relative to bound radioligand: in duplicate, average. The procedure: To determine the binding activity at the human recombinant serotonin 5-HT1B receptor of compounds of the invention, CHO-K1 cell line expressing the human 5-HT1B recombinant receptor was amplified to prepare membranes used for the radioligand binding assay throughout the study. Radioligand binding competition on 5-HT1B was performed by adding successively in the wells of a 96 well plate (Master Block, Greiner, 786201). […] The plate was incubated 60 min at 25° C. in a water bath and then filtered over GF/B filters (Perkin Elmer, 6005177, presoaked in 0.5% PE1 for 2 h at room temperature) with a Filtration unit (Perkin Elmer). The filters were washed 3× with 0.5 mL of ice-cold washing buffer (50 mM Tris pH 7.4). 50 μL Microscint 20 (Packard) was added and the plate was incubated 15 min on an orbital shaker and then counted with a TopCount™ for 1 min/well.
The reference value thus obtained for the test was compared to a historical value obtained from the same receptor and used to validate the experimental session. […] For replicate determinations, the maximum variability tolerated in the test was of +/−20% around the average of the replicates.
Compounds were tested for binding activity in the radioligand binding competition assay on human 5-HT1B receptor, at one concentration […], in duplicate. Dose-response data from test compounds were analyzed with XLfit (IDBS) software using nonlinear regression applied to a sigmoidal dose-response model.
Dose-response data was analyzed with XLfit (IDBS) software using non-linear regression applied to a sigmoidal dose-response model.

The target in a further test is histamine receptor H1 (Homo sapiens, UniProt P35367). Kind of test: Histamine H1 radioligand binding ([3H]Pyrilamine). The following applies: for inhibition at 1 µM: read-out: Histamine Binding (1 μM) H1, percent inhibition of specific binding, 1 μM. In a few lines: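 Values are percent inhibition of specific [3H]pyrilamine (1.2 nM) binding with compounds at ≤1 μM (1% DMSO vehicle); 180 min incubation at 25 °C, pH 7.4 Tris buffer, on CHO-expressed human H1 receptor; 1 μM pyrilamine defined nonspecific binding, bound ligand counted after filtration.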
histamine receptor H1, sequence (P35367 whole entry): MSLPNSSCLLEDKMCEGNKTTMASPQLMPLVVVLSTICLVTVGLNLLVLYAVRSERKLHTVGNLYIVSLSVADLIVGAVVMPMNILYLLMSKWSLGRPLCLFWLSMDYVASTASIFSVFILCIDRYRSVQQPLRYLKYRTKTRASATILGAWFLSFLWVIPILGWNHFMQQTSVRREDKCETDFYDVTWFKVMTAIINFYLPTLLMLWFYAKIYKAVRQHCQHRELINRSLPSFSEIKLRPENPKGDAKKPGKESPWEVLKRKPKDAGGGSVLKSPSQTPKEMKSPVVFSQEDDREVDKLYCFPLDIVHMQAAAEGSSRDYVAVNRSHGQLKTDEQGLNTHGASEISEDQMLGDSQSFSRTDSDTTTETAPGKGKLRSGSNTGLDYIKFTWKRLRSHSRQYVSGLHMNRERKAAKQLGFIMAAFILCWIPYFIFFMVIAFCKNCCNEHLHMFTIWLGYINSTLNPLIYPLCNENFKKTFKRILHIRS

human recombinant serotonin (5-Hydroxytryptamine) 5-HT7 receptor, sequence (P34969 whole entry): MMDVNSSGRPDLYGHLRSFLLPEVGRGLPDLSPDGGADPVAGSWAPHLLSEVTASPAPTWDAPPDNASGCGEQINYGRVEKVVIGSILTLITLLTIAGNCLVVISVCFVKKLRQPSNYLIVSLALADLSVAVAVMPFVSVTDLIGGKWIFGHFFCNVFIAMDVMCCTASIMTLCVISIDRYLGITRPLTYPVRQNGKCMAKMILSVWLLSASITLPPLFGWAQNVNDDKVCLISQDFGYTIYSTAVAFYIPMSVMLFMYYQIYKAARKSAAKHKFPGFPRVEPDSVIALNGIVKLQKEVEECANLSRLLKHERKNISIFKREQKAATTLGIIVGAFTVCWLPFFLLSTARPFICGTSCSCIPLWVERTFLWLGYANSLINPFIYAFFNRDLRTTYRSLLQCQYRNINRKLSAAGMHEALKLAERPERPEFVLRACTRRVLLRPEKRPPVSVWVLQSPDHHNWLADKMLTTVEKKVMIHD
T2 sequence (P28223 whole entry): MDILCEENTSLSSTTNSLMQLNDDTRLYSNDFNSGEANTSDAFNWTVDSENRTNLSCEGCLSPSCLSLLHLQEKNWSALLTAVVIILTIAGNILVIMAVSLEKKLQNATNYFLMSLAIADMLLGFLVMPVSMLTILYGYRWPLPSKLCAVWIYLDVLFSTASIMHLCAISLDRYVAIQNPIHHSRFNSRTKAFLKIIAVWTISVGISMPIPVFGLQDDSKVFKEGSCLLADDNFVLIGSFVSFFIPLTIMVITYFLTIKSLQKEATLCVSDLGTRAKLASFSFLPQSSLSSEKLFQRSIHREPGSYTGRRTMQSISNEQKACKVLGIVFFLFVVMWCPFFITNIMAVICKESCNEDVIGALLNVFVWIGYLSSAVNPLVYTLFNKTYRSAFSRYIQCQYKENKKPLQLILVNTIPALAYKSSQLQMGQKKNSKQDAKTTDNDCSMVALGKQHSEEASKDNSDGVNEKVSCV
human dopamine D2L receptor, sequence (P14416 whole entry): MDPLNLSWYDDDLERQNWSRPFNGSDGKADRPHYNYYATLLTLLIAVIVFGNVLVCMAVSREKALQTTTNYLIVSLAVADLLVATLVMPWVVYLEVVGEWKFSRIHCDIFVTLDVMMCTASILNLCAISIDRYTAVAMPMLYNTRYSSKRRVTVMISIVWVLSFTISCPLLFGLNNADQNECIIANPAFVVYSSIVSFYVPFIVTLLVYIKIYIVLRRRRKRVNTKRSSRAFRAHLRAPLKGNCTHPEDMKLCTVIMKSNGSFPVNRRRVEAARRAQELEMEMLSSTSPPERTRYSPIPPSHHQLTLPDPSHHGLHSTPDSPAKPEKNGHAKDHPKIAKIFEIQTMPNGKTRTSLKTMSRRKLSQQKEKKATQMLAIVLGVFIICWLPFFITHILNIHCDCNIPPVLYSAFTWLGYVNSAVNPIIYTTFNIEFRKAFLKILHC
T5 sequence (P28222 whole entry): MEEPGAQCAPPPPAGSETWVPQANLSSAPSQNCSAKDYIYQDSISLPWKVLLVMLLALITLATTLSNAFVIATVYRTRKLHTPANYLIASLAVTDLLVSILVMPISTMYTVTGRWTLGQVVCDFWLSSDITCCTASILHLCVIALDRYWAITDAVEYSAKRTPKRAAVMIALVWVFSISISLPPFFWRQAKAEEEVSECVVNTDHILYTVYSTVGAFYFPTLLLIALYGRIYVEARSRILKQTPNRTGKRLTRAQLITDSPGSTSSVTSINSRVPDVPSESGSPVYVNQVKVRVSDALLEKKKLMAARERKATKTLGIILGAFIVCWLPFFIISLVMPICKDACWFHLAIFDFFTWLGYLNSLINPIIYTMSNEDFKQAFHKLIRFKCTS
T3 sequence (P50406 whole entry): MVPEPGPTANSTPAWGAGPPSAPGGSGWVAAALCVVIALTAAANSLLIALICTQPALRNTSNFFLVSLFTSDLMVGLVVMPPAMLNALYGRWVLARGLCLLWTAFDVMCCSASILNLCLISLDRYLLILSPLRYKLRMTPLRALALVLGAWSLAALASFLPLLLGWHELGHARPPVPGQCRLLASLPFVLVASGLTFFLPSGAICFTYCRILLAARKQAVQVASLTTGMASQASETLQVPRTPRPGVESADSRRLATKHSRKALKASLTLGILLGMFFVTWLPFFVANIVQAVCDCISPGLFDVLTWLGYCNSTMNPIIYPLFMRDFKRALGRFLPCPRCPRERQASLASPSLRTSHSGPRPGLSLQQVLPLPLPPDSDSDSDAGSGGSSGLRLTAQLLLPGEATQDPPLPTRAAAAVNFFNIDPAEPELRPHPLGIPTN
T4 sequence (P25021 whole entry): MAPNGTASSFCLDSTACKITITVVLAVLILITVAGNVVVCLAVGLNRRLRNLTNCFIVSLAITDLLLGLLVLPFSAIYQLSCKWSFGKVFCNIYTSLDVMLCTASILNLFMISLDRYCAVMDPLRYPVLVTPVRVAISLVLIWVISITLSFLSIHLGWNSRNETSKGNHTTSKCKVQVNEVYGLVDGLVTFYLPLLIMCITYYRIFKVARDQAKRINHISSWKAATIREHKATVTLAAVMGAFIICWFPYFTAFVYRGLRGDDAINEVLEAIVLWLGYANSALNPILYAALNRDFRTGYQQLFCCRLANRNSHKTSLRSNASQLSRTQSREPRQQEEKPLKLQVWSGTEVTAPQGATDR

A word on the inhibition: it is the change of the read-out against control, counted positive when it falls. Turning to `C/C(=C\n1c2c(c3ccccc31)CN(C)CC2)c1ccncc1` [Compound 217, (E)-2-methyl-5-(2-(pyridin-4-yl)prop-1-enyl)-2,3,4,5-tetrahydro-1H-pyrido[4,3-b]indole], the “Inhibition of ligand binding, Dopamine D2L” value (“Inhibition … Dopamine D2L” below) in test [1] was determined as 88%. In addition, the inhibition at 1 µM is 86% in test [1]; 87% in test [2] (compound at 1 μM); 98% in test [3]; 102% in test [4]; 73% in test [5] (compound at 1 μM); 50% in test [6]. Besides, the inhibition at 0.1 µM came out at 62% in test [2], 96% in test [3], 97% in test [4] and 58% in test [5]. Also, the “Inhibition of ligand binding, Serotonin 5-HT2C (percent inhibition of specific binding)” value in test [2] (compound at 1 μM, 1 µM) was 92%. Also, in test [5] (compound at 1 μM, 1 µM), the “Inhibition of ligand binding, Serotonin 5-HT7 (percent inhibition of specific binding)” value is 91%. The “5-HT1B (5 μM) % Binding relative to bound radioligand” value in test [7] is on record as 10%.
As to `C/C(=C/n1c2c(c3cc(C)ccc31)CN(C)CC2)c1ccncc1` [Compound 224, (Z)-2,8-dimethyl-5-(2-(pyridin-4-yl)prop-1-enyl)-2,3,4,5-tetrahydro-1H-pyrido[4,3-b]indole], in test [1], the “Inhibition … Dopamine D2L” value came to 80%. Besides, the inhibition at 1 µM in test [1] came to 65%; in test [2] (compound at 1 μM), 97%; in test [3], 99%; on histamine receptor H1 it was 24%; in test [4], 102%; in test [5] (compound at 1 μM), 91%. The inhibition at 1 µM in test [6] is 58%. The inhibition at 0.1 µM in test [2] turned out to be 95%; in test [3] it was 92%; in test [4], 96%; in test [5], 88%. For the same compound, at histamine receptor H1, the “Histamine Binding (1 μM) H1, percent inhibition of specific binding” value is 26%. In test [7], the “5-HT1B (5 μM) % Binding relative to bound radioligand” value stood at 10%.
Regarding `C/C(=C\n1c2c(c3cccc(F)c31)CN(C)CC2)c1ccncc1` [Compound 223, (E)-6-fluoro-2-methyl-5-(2-(pyridin-4-yl)prop-1-enyl)-2,3,4,5-tetrahydro-1H-pyrido[4,3-b]indole], the “Inhibition … Dopamine D2L” value in test [1] is 97%. In addition, the inhibition at 1 µM in test [1] is 96%; in test [2] (compound at 1 μM) it was 93%; in test [3], 95%; at histamine receptor H1 it was 6%; in test [4], 103%; in test [5] (compound at 1 μM), 91%. In test [6], the inhibition at 1 µM came to 44%. In addition, the inhibition at 0.1 µM turned out to be 81% in test [2], 97% in test [3], 104% in test [4] and 67% in test [5]. The “Histamine Binding (1 μM) H1, percent inhibition of specific binding” value on histamine receptor H1 is listed as 11%. Also, in test [7], the “5-HT1B (5 μM) % Binding relative to bound radioligand” value is recorded as 4%.
In the case of `CN1CCc2c(c3cccc(Cl)c3n2CC(C)(O)c2ccncc2)C1` (stereo not shown) [Compound 182, 1-(6-chloro-2-methyl-3,4-dihydro-1H-pyrido[4,3-b]indol-5(2H)-yl)-2-(pyridin-4-yl)propan-2-ol], the inhibition at 1 µM in test [1] was found to be 8%; in test [2] (compound at 1 μM), 93%; in test [3], 91%; at histamine receptor H1, 26%; in test [4] it was 47%; in test [5] (compound at 1 μM) it was 54%. In test [6], the inhibition at 1 µM was determined as 53%. Moreover, in test [7], the “5-HT1B (5 μM) % Binding relative to bound radioligand” value is recorded as 3%.
What is called IC50 is the midpoint of a concentration-inhibition curve. `C/C(=C\n1c2c(c3cc(C)ccc31)CN(C)CC2)c1cccnc1` [Compound 91, (E)-2,3,4,5-tetrahydro-2,8-dimethyl-5-(2-(pyridin-3-yl)prop-1-enyl)-1H-pyrido[4,3-b]indole]: the inhibition at 1 µM in test [1] is 27%; in test [2] (compound at 1 μM), 100%; in test [3] it was 98%; at histamine receptor H1, 11%; in test [4] it was 76%; in test [5] (compound at 1 μM), 95%. Also, in test [6], the inhibition at 1 µM amounted to 52%. The concentration for half-maximal inhibition (IC50) in test [7] worked out at 365 nM. In addition, the “5-HT1B (5 μM) % Binding relative to bound radioligand” value in test [7] came to 9%. For the same compound, the “% Binding relative to bound radioligand (5-HT1B)” value is on record as 120% in test [7] (Conc. 0.08 nM); 129% in test [7] (Conc. 5 nM); 113% in test [7] (Conc. 20 nM); 103% in test [7] (Conc. 78 nM); 66% in test [7] (Conc. 313 nM); 31% in test [7] (Conc. 1250 nM). In addition, the “% Binding relative to bound radioligand (5-HT1B)” value is recorded as 1% in test [7] (Conc. 20000 nM) and −5% in test [7] (Conc. 50000 nM).
